Measurements as given in patent publication US20240279604A1, “3D spheroid having uniform size and composition comprising neuron and astrocyte derived from Alzheimer's disease patients, method for producing thereof, and method and kit for screening drug using thereof” (Industry-University Cooperation Foundation Hanyang …, priority 2023, published 2024).
“Also recorded” adds a separate entry of the source.

Experiments:
[1] = test system: Alzheimer's disease-derived spheroids (PS1-mutated AD-iPSC-NPCs); assay: CellEvent Caspase-3/7 Green activated caspase staining in Alzheimer's disease-derived spheroids; assay type: cell-based, human; conditions: for CellEvent fluorescence signal (activated caspase cell death staining): 10 μM, 3 days, confocal microscopy, FIG. 6D; for green fluorescence of activated caspase, confocal z-stack from surface to inside of spheroids (cell penetration/uptake): confocal z-stack images, FIG. 7
Experimental: (§1) For drug efficacy testing of 3D cultured cells, PS1-mutated AD-iPSC-NPCs were differentiated into spheroids in a U-bottom plate (Thermo Fisher Scientific). Spheroids were cultured with nordihydroguaiaretic acid (NDGA)(10 μM, Tokyo Chemical Industry, Tokyo, Japan) or curcumin (CU)(10 μM, Tokyo Chemical Industry) in a humidified incubator under 37° C. and 5% CO^2 conditions for 3 days and then fixed for immunocytochemistry and western blotting.
(§2) After being washed with a probe-free medium, samples were captured and analyzed using a fluorescence microscope (FV3000, Olympus). Cell penetration/uptake by CellEvent staining was analyzed with confocal z-stack data for the green fluorescence of activated caspase released from the inside of spheroids. The confocal z-stack data was obtained from 100 slides of each 1 μm of one spheroid.

[2] = test system: Alzheimer's disease-derived spheroids (PS1-mutated AD-iPSC-NPCs); assay: ThT staining of Aβ aggregates in Alzheimer's disease-derived spheroids; assay type: cell-based, human; conditions: 10 μM, 3 days; confocal microscopy; FIG. 6C
Experimental: as §1
(§3) After washing with a probe-free medium, samples were captured and analyzed using a fluorescence microscope (FV3000, Olympus).

[3] = target: T1, Aβ (1-42) (Homo sapiens, UniProt P05067); assay: in vitro ThT fluorescence assay for Aβ (1-42) aggregation; assay type: biochemical; conditions: 10 μM compound, 2 μM Aβ (1-42), 20 μM ThT, pH 8.0, 37° C.; FIG. 6A
T1 construct: an Aβ (1-42) peptide (AGP-8338, Anygen, Gwangju, Republic of Korea); purchased Anygen AGP-8338
T1 sequence (P05067 672-713 limits assumed): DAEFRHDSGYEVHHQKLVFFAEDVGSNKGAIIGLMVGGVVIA
Experimental: The degree of inhibition of Aβ (1-42) aggregation was measured using an in vitro ThT fluorescence assay. An Aβ (1-42) stock (0.2 mM) was prepared in 50% DMSO, and NDGA and CU stocks were prepared in 100% DMSO. Reactions for Aβ (1-42) aggregation (2 μM) and its inhibition by NDGA or CU (10 μM) were performed in a 20 mM sodium phosphate buffer (pH 8.0) supplemented with 0.2 mM EDTA and 0.02% sodium azide in the presence of 20 μM ThT in microplate wells (Corning® 96-well Black Flat Bottom Polystyrene Not Treated Microplate, Corning). ThT fluorescence intensity was measured every 30 minutes under 0.5 min shaking under 335 rpm/29.5 min incubation conditions at 37° C. using an Infinite […] (TECAN Mannedorf, Switzerland) microplate reader with 450-nm excitation and 480-nm emission filters.

[4] = test system: Alzheimer's disease-derived spheroids (PS1-mutated AD-iPSC-NPCs); assay: Aβ (1-42) ELISA in Alzheimer's disease-derived spheroids cultured with drug; assay type: cell-based, human; conditions: 10 μM, 3 days; FIG. 6B
Experimental: as §1

[5] = test system: 3D spheroids manufactured from iPSC-NPCs derived from healthy individuals; assay: ThT staining of control 3D spheroids treated with oligomerized Aβ; assay type: cell-based, human; conditions: Aβ aggregates 10 μM, 24 hours, compared to spheroids not treated with Aβ; FIG. 4A
From the text: (§4) J Neurosci Methods. 2010; 190(2): 171-179. […] When used, Aβ was suspended in PBS and used.
as §3

[6] = test system: 3D spheroids manufactured from iPSC-NPCs derived from healthy individuals; assay: CellEvent activated caspase staining of control 3D spheroids treated with oligomerized Aβ; assay type: cell-based, human; conditions: Aβ aggregates 10 μM, 24 hours, compared to untreated; FIG. 4C
Experimental: as §4, §2

| Compound | CellEvent fluorescence signal (activated caspase cell death staining) [1] | green fluorescence of activated caspase, confocal z-stack from surface to inside of spheroids (cell penetration/uptake) [1] | ThT fluorescence signal / staining intensity (Aβ aggregates) [2] | Aβ (1-42) aggregation (ThT fluorescence) [3] | Aβ (1-42) levels by ELISA [4] | ThT fluorescence emission [5] | green fluorescence emission according to CellEvent staining (cell death) [6] |
| --- | --- | --- | --- | --- | --- | --- | --- |
| CC(Cc1ccc(O)c(O)c1)C(C)Cc1ccc(O)c(O)c1 (stereo not drawn) [NDGA, nordihydroguaiaretic acid] | reduced | reduction in fluorescence from the surface to the inside of spheroids | reduced | suppressed | decreased; also recorded: reduced |  |  |
| oligomerized Aβ: Aβ (1-42) peptide aggregated/oligomerized in DMSO, used to treat control spheroids |  |  |  |  |  | noticeably increased | substantially increased |
| COc1cc(/C=C/C(=O)CC(=O)/C=C/c2ccc(O)c(OC)c2)ccc1O [CU, curcumin] | reduced | reduction in fluorescence from the surface to the inside of spheroids | reduced | suppressed | decreased; also recorded: reduced |  |  |
